In patent US20250304542A1, “Fused Heterobicyclic Antiviral Agents” (Enanta Pharmaceuticals, Inc., priority 2024, published 2025):
pEC50: −log10 of the molar value. Like-named read-outs stand apart in the source and are kept apart here.

Assays:
NTCP = molecular target: T1, NTCP (Homo sapiens, UniProt Q14973); assay: HepG2-NTCP preS1 Binding Competition Assay; details: HepG2-NTCP cells pre-treated 2 hours, FITC-labeled myristoylated preS1 peptide co-incubated 30 minutes, cell-surface fluorescence; read-out: Cellular EC50
T1 construct: expressed in transfected cells; host or cells: HepG2-NTCP (A3 clone, kept under puromycin)
T1 sequence (Q14973 1-349): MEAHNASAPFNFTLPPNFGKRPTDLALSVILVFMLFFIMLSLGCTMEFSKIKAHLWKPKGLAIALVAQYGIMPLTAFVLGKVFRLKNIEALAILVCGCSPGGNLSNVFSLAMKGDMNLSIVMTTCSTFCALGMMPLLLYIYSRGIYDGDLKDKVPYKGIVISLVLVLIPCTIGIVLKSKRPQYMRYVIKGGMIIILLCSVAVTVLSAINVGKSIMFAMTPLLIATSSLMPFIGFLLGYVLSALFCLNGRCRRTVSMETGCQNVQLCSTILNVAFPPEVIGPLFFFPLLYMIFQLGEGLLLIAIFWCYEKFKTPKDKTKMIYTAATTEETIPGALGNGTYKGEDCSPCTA
Description: Myristoylated preS1 peptide (2-48 aa) conjugated to a C-terminal FITC tag was synthesized to evaluate preS1 binding to NTCP-expressing cells. HepG2-NTCP cells seeded in 384-wells were pre-treated with compounds for 2 hours prior to the addition of FITC-labeled preS1 peptide. After co-incubation for 30 minutes, unbound FITC-preS1 peptide was washed twice with PBS, and the fluorescence of preS1-FITC bound to cell surface was detected by Envision plate reader. EC50 ranges are as follows: A<0.1 μM; B 0.1-1 μM; C>1 μM. A dash (-) indicates the compound was not tested.

HBV = HBV Infection in HepG2-NTCP Cells (HBeAg AlphaLISA); assay type: cell-based; details: Hepatitis B virus, 192 h; for EC50: read-out: Cellular EC50 (μM)
Description: HepG2-NTCP A3 cells were maintained in DMEM media supplemented with GlutaMAX™, 10% fetal bovine serum, 1% penicillin/streptomycin, and 5 μg/mL puromycin at 37° C. in a humidified atmosphere with 5% CO2 in a collagen-coated tissue culture flask.
HepG2-NTCP cells were seeded in 384 well plate containing 16,000 cells/well two days prior to the infection. On the day of infection, compounds were 3-fold serially diluted in DMSO and pre-incubated with HepG2-NTCP cells for two hours before purified HBV addition. HBV infection was carried out at 2000 GE/cell with 4% PEG, and the final concentration of DMSO is 0.5%. On day one post infection, HBV-containing media was aspirated, cells were washed once with PBS and then maintained in 2.5% DMSO containing media for the remainder of the assay.
Supernatants from infected HepG2-NTCP cells were collected at day 8 post infection, and the amount of viral antigen HBeAg was measured by HBeAg AlphaLISA detection kit (PerkinElmer) following the manufacturer's recommended protocol. Irrespective of readout, compound concentrations that reduce viral product accumulation in supernatants by 50% relative to DMSO controls (EC50) are reported. EC50 ranges are as follows: A<0.1 μM; B 0.1-1 μM; C>1 μM. A dash (-) indicates the compound was not tested.

| Structure (SMILES) | pEC50 (NTCP) | EC50 (HBV) [µM] | pEC50 (HBV; HBV-infected HepG2-NTCP cells, HBeAg in supernatants at day 8 post infection, 50% reduction relative to DMSO controls, read-out: Cellular EC50) |
| --- | --- | --- | --- |
| CN1[C@H](C2CCCCC2)CN(c2ccccc2)c2cc(Cl)c(CC[C@H](NC(=O)C(=O)N3CCCC3)C(=O)O)cc2S1(=O)=O [Example 35] | 6.00 to 7.00 | – | – |
| CCOC(=O)N[C@H](CCc1cc2c(cc1Cl)N(c1ccccc1)C[C@@H](C1CCCCC1)N(C)S2(=O)=O)C(=O)O [Example 19] | 6.00 to 7.00 | – | – |
| CCN(C)C(=O)N[C@@H](CCc1cc2c(cc1Cl)N(c1ccccc1)C[C@@H](C1CCCCC1)N(C)S2(=O)=O)C(=O)O [Example 26] | 6.00 to 7.00 | – | – |
| CCCCN(C)C(=O)C(=O)N[C@H](CCc1cc2c(cc1Cl)N(c1ccccc1)C[C@@H](C1CCCCC1)N(C)S2(=O)=O)C(=O)O [Example 33] | 6.00 to 7.00 | 0.1 to 1 | – |
| CN1[C@H](C2CCCCC2)CN(c2ccccc2)c2cc(Cl)c(C#CC3(C(=O)O)CC3)cc2S1(=O)=O [Example 5] | 6.00 to 7.00 | < 0.1 | – |
| CN1[C@H](C2CCCCC2)CN(C2CCCCC2)c2cc(Cl)c(/C=C/C(C)(C)C(=O)O)cc2S1(=O)=O [Example 10, (R,E)-4-(7-chloro-3,5-dicyclohexyl-2-methyl-1,1-dioxido-2,3,4,5-tetrahydrobenzo[f][1,2,5]thiadiazepin-8-yl)-2,2-dimethylbut-3-enoic acid] | 6.00 to 7.00 | – | – |
| CNc1cc2c(cc1C(=O)N[C@H](C(=O)O)c1cccc(Cl)c1)S(=O)(=O)N(C)[C@H](C1CCCCC1)CN2c1ccccc1 [Example 45] | > 7.00 | < 0.1 | – |
| CN1[C@H](C2CCCCC2)CN(c2ccccc2)c2cc(Cl)c(CCC(C)(C)C(=O)O)cc2S1(=O)=O [Example 2, (R)-4-(7-chloro-3-cyclohexyl-2-methyl-1,1-dioxido-5-phenyl-2,3,4,5-tetrahydrobenzo[f][1,2,5]thiadiazepin-8-yl)-2,2-dimethylbutanoic acid] | > 7.00 | < 0.1 | – |
| CCCCCCCCCOC(=O)N[C@H](CCc1cc2c(cc1Cl)N(c1ccccc1)C[C@@H](C1CCCCC1)N(C)S2(=O)=O)C(=O)O [Example 21] | 6.00 to 7.00 | – | – |
| CC(C)COC(=O)N[C@@H](CCc1cc2c(cc1Cl)N(c1ccccc1)C[C@@H](C1CCCCC1)N(C)S2(=O)=O)C(=O)O [Example 14, (S)-4-((R)-7-chloro-3-cyclohexyl-2-methyl-1,1-dioxido-5-phenyl-2,3,4,5-tetrahydrobenzo[f][1,2,5]thiadiazepin-8-yl)-2-((isobutoxycarbonyl)amino)butanoic acid] | 6.00 to 7.00 | < 0.1 | – |
| CN1[C@H](C2CCCCC2)CN(c2ccccc2)c2cc(Cl)c(CC[C@@H](NC(=O)OCc3ccccc3)C(=O)O)cc2S1(=O)=O [Example 23] | 6.00 to 7.00 | – | – |
| CN1[C@H](C2CCCCC2)CN(c2ccccc2)c2cc(Cl)c(CC[C@@H](NC(=O)OC(C)(C)C)C(=O)O)cc2S1(=O)=O [Example 13] | > 7.00 | < 0.1 | – |
| CNc1cc2c(cc1C(=O)N[C@H](C(=O)O)c1ccsc1)S(=O)(=O)N(C)[C@H](C1CCCCC1)CN2c1ccccc1 [Example 40] | > 7.00 | 0.1 to 1 | – |
| CN1[C@H](C2CCCCC2)CN(c2ccccc2)c2cc(Cl)c(CC[C@H](NC(=O)N3CCCCC3)C(=O)O)cc2S1(=O)=O [Example 27] | 6.00 to 7.00 | – | – |
| CN1[C@H](C2CCCCC2)CN(c2ccccc2)c2cc(Cl)c(CC[C@@H](NC(=O)N3CCCCC3)C(=O)O)cc2S1(=O)=O [Example 24, (R)-4-((R)-7-chloro-3-cyclohexyl-2-methyl-1,1-dioxido-5-phenyl-2,3,4,5-tetrahydrobenzo[f][1,2,5]thiadiazepin-8-yl)-2-(piperidine-1-carboxamido)butanoic acid] | 6.00 to 7.00 | – | – |
| CNc1cc2c(cc1C(=O)N[C@H](C(=O)O)c1ccc(C(F)(F)F)cc1)S(=O)(=O)N(C)[C@H](C1CCCCC1)CN2c1ccccc1 [Example 39, (S)-2-((R)-3-cyclohexyl-2-methyl-7-(methylamino)-1,1-dioxido-5-phenyl-2,3,4,5-tetrahydrobenzo[f][1,2,5]thiadiazepine-8-carboxamido)-2-(4-(trifluoromethyl)phenyl)acetic acid] | > 7.00 | < 0.1 | – |

| Structure (SMILES) | pEC50 (NTCP) | EC50 (HBV) [µM] | pEC50 (HBV; HBV-infected HepG2-NTCP cells, HBeAg in supernatants at day 8 post infection, 50% reduction relative to DMSO controls, read-out: Cellular EC50) |
| --- | --- | --- | --- |
| CN1[C@H](C2CCCCC2)CN(C2CCCCC2)c2cc(Cl)c(CCC(C)(C)C(=O)O)cc2S1(=O)=O [Example 4, (R)-4-(7-chloro-3,5-dicyclohexyl-2-methyl-1,1-dioxido-2,3,4,5-tetrahydrobenzo[f][1,2,5]thiadiazepin-8-yl)-2,2-dimethylbutanoic acid] | > 7.00 | 0.1 to 1 | – |
| CC(C)CS(=O)(=O)N[C@@H](CCc1cc2c(cc1Cl)N(c1ccccc1)C[C@@H](C1CCCCC1)N(C)S2(=O)=O)C(=O)O [Example 28, (S)-4-((R)-7-chloro-3-cyclohexyl-2-methyl-1,1-dioxido-5-phenyl-2,3,4,5-tetrahydrobenzo[f][1,2,5]thiadiazepin-8-yl)-2-((2-methylpropyl)sulfonamido)butanoic acid] | 6.00 to 7.00 | – | – |
| CCCCCC(=O)N[C@@H](CCc1cc2c(cc1Cl)N(c1ccccc1)C[C@@H](C1CCCCC1)N(C)S2(=O)=O)C(=O)O [Example 36, (S)-4-((R)-7-chloro-3-cyclohexyl-2-methyl-1,1-dioxido-5-phenyl-2,3,4,5-tetrahydrobenzo[f][1,2,5]thiadiazepin-8-yl)-2-hexanamidobutanoic acid] | 6.00 to 7.00 | – | – |
| CN1[C@H](C2CCCCC2)CN(C2CCCCC2)c2ccc(CCC(C)(C)C(=O)O)cc2S1(=O)=O [Example 3, (R)-4-(3,5-dicyclohexyl-2-methyl-1,1-dioxido-2,3,4,5-tetrahydrobenzo[f][1,2,5]thiadiazepin-8-yl)-2,2-dimethylbutanoic acid] | > 7.00 | 0.1 to 1 | – |
| CCN(C)C(=O)N[C@H](CCc1cc2c(cc1Cl)N(c1ccccc1)C[C@@H](C1CCCCC1)N(C)S2(=O)=O)C(=O)O [Example 25, (R)-4-((R)-7-chloro-3-cyclohexyl-2-methyl-1,1-dioxido-5-phenyl-2,3,4,5-tetrahydrobenzo[f][1,2,5]thiadiazepin-8-yl)-2-(3-ethyl-3-methylureido)butanoic acid] | 6.00 to 7.00 | – | – |
| CNc1cc2c(cc1C(=O)NC(C)(C)C(=O)O)S(=O)(=O)N(C)[C@H](C1CCCCC1)CN2c1ccccc1 [Example 43] | 6.00 to 7.00 | – | – |
| CNc1cc2c(cc1C(=O)N[C@H](C(=O)O)C1CCCCC1)S(=O)(=O)N(C)[C@H](C1CCCCC1)CN2c1ccccc1 [Example 41] | > 7.00 | < 0.1 | – |
| CNc1cc2c(cc1C(=O)N[C@@H](C(=O)O)c1cccc(Cl)c1)S(=O)(=O)N(C)[C@H](C1CCCCC1)CN2c1ccccc1 [Example 46] | 6.00 to 7.00 | – | – |
| CCOC(=O)N[C@@H](CCc1cc2c(cc1Cl)N(c1ccccc1)C[C@@H](C1CCCCC1)N(C)S2(=O)=O)C(=O)O [Example 18] | 6.00 to 7.00 | – | – |
| CCCCN(C)C(=O)C(=O)N[C@@H](CCc1cc2c(cc1Cl)N(c1ccccc1)C[C@@H](C1CCCCC1)N(C)S2(=O)=O)C(=O)O [Example 32, (S)-2-(2-(butyl(methyl)amino)-2-oxoacetamido)-4-((R)-7-chloro-3-cyclohexyl-2-methyl-1,1-dioxido-5-phenyl-2,3,4,5-tetrahydrobenzo[f][1,2,5]thiadiazepin-8-yl)butanoic acid] | > 7.00 | < 0.1 | – |
| CNc1cc2c(cc1C(=O)N[C@H](C(=O)O)C1CCOCC1)S(=O)(=O)N(C)[C@H](C1CCCCC1)CN2c1ccccc1 [Example 44] | < 6.00 | – | – |
| CN1[C@H](C2CCCCC2)CN(c2ccccc2)c2cc(Cl)c(OCC(C)(C)C(=O)O)cc2S1(=O)=O [Example 38, (R)-3-((7-chloro-3-cyclohexyl-2-methyl-1,1-dioxido-5-phenyl-2,3,4,5-tetrahydrobenzo[f][1,2,5]thiadiazepin-8-yl)oxy)-2,2-dimethylpropanoic acid] | – | – | 6.00 to 7.00 |
| CCCCCCCCCOC(=O)N[C@@H](CCc1cc2c(cc1Cl)N(c1ccccc1)C[C@@H](C1CCCCC1)N(C)S2(=O)=O)C(=O)O [Example 20] | 6.00 to 7.00 | – | – |
| CNc1cc2c(cc1C(=O)NC1(C(=O)O)CC1)S(=O)(=O)N(C)[C@H](C1CCCCC1)CN2c1ccccc1 [Example 42] | < 6.00 | – | – |
| CCCCCOC(=O)N[C@H](CCc1cc2c(cc1Cl)N(c1ccccc1)C[C@@H](C1CCCCC1)N(C)S2(=O)=O)C(=O)O [Example 17] | 6.00 to 7.00 | – | – |
